The structures appear in SMILES notation.

The subject of series [1] is C. violaceum CV026. Briefly: Measurement of IC50 of compounds having an inhibitory effect on C. violaceum quorum sensing (purple pigment absorbance at 585 nm). Type of series: cell-based. To be noted: Chromobacterium violaceum, CV026, read-out: IC50 of compounds having bacterial quorum sensing inhibitory activity. Here is the method:
2. Measurement of IC50 of Compounds Having an Inhibitory Effect on C. violaceum Quorum Sensing
2.1 The wells of a 12-well plate were marked as initial concentration, 2, 4, 8, 16, 32, 64, 128, 256, DMSO group, and a blank control group from left to right and from up to bottom, respectively.
2.2 The monoclonal C. violaceum CV026 grew on LB solid plate was cultured to exponational phase in a 5 ml fresh LB liquid culture medium, 50 μl was then taken for seeding in a 5 ml LB culture medium, and was cultured until the optical density OD value was about 1.0 at 585 nm; the culture was then mixed well with LB culture medium at a ratio of 1:9 by volume (with OD of about 0.15), and was added to a 12-well plate in an amount of 2 ml/well.
2.3 The compounds preliminarily screened to have quorum sensing inhibitory activity were dissolved respectively in DMSO (at a concentration of 0.065M), and then 10 μl was taken into 10 μl DMSO solution to achieve the purpose of 2-fold dilution, and so on. Each compound was gradiently diluted to a highest fold of 256 (gradient dilution of 2, 4, 8, 16, 32, 64, 128, 256 fold).
2.4 To each well, 15 μl 1000-fold diluted inducer C6-HSL (initial concentration of 0.125M) and 8 μl compound solution at each diluted gradient was added; to DMSO control group, 8 μl DMSO was added; to a blank control group, 8 μl LB culture medium was added. Finally, it was ensured that 2 ml culture in each of the 12-well plate was mixed well.
2.5 The 12-well plate was placed in a 30° C. shaker at 130 rpm and was cultured for 10-12 h.
2.6 After the culture was finished, 1 ml culture was taken from each well and was put in a 1.5 ml EP tube and then was centrifugated at 12000 rpm for 10 mins. […] 200 μl supernatant pigment was put in a 96-well culture plate, and was measured for absorbance value at 585 nm by a Microplate Reader, […] the absorbance value and the corresponding concentration were plotted to get the IC50 value.

Series [2] deals with C. violaceum CV026. As to the kind of experiment: Preliminary screening of bacterial quorum sensing agonistic / inhibitory activity on LB plate (purple stain / white circle). It is filed as cell-based. The conditions noted are these: for Regulatory activity (bacterial quorum sensing regulatory activity): 1 μl of 0.065M compound spotted on plate, inhibitory screen with inducer C6-HSL, 30° C., 16-18 h; for Effect on bacterial quorum sensing (summary in words): summary of the activity evaluation experiments. Here is the method: 1.1 Preparation work: different compounds to be tested (Compounds 1-40 prepared in Example 1-40) were weighted and then were dissolved in 200 μl DMSO (dimethyl sulfoxide) to prepare a solution at a concentration of 0.065M. 5.0 mg inducer, N-hexanoyl homoserine lactone (C6-HSL, purchased from Sigma Company), was weighted and was dissolved in 200 μl DMSO (at a concentration of 0.125M), and the compounds and the inducer were stored at 4 for further use. C. violaceum CV026 (donated by Professor McLean J C from Texas State University) in LB culture medium (LB culture medium consisting of 1% (percentage by mass) tryptone, 0.5% (percentage by mass) yeast extract, 1% (percentage by mass) NaCl and water) was cultured under shaking in a shaker at 30, 200 rpm to get the culture medium for further use.
1.2 Method for preliminary screening of compounds having agonistic activity: 400 μl C. violaceum CV026 (at a bacterial concentration of 1×10^8/ml) was added to 5 ml melted semi-solid LB culture medium, and was mixed well; the mixed culture medium was poured into a solid LB plate; when the mixed culture medium was solidified on the plate, lattice was made thereon; 1 μl of the dissolved compounds to be tested (Compounds 1-40 in Examples 1-40, at a concentration of 0.065M) was spotted on the plate; when the compounds on the plate was dried in air, the plate was put in a 30° C. oven upside down and was cultured for a period of 16-18 h. If the compound to be tested has an agonistic effect on C. violaceum CV026 on the LB plate, purple stain will be induced on the LB plate. The agonistic activity of a compound is determined depending on whether purple stain is induced for C. violaceum CV026 on LB plate as well as the purple depth.
1.3 Method for preliminary screening of compounds having inhibitory activity: the inducer C6-HSL was diluted gradiently to 1000 times by means of 2-fold dilution; 15 μl diluted inducer and 400 μl C. violaceum CV026 in exponential phase (at a bacterial concentration of 1×10^8/ml) were mixed well and then were added to a 5 ml melted semi-solid LB culture medium; the mixture of inducer, C. violaceum, and semi-solid LB was poured onto a solid LB plate; when the mixture was solidified on the plate, lattice was made thereon: 1 μl of the dissolved compounds to be tested (Compounds 1-40 in Examples 1-40, at a concentration of 0.065M) was spotted on the plate; when the compounds on the plate were dried in air, the plate was put in a 30° C. oven upside down and was cultured for a period of 16-18 h. If the compound to be tested has an inhibitory effect on C. violaceum CV026 on the LB plate, white circle will appear on the LB plate. The inhibitory activity of a compound is preliminary determined depending on the size of the white circle appeared after C. violaceum CV026 was inhibited on LB plate.
It is found after preliminary screening that 22 compounds according to the invention have bacterial quorum sensing regulatory activity, and the screening result was shown in Table 1.

`O=C(NN1CCOC1=O)c1ccc([N+](=O)[O-])cc1` [Compound 7, 4-nitro-N-(2-oxo-oxazolidin-3-yl)benzamide]: the melting point was in the range of 206 to 208 °C. Further, the IC50 in series [1] stood at 18.7 ± 2.59 µM. In series [2], the “Regulatory activity (bacterial quorum sensing regulatory activity)” value (“Regulatory activity” below) is “−” and the “Effect on bacterial quorum sensing (summary in words)” value (“Effect on bacterial quorum sensing” for short) was “inhibitory effect on bacterial quorum sensing”.
In the case of `CCc1ccc(C(=O)NN2CCOC2=O)cc1` [Compound 11, 4-ethyl-N-(2-oxo-oxazolidin-3-yl)benzamide], the melting point was 170 to 173 °C. In series [1], the IC50 was found to be 13.9 ± 4.21 µM. Further, in series [2], the “Regulatory activity” value is on record as “−” and the “Effect on bacterial quorum sensing” value is given as “inhibitory effect on bacterial quorum sensing”.
With `O=C(NN1CCOC1=O)c1ccc(Br)cc1` [Compound 12, 4-bromo-N-(2-oxo-oxazolidin-3-yl)benzamide], the melting point was in the range of 202 to 204 °C. Also, the IC50 in series [1] turned out to be 7.85 ± 1.71 µM. Also, in series [2], the “Regulatory activity” value was “±”; the “Effect on bacterial quorum sensing” value is “both an agonizing effect and an inhibitory effect”.

In general, IC50 refers to the concentration that gives 50% inhibition. As a reminder, the melting point is the temperature, or range, at which the solid turns liquid.

(Values after patent US9914711B2 (priority 2013, dated 2018).)
